Positions of bridges follow the written chain, without caps; N, C: chain ends. Non-standard residues stand in square brackets, D forms with d. Residues, ends and D or L forms follow the SMILES beside them. Trp(7-Me) = Cc1cccc2c(C[C@H](N)C(=O)O)c[nH]c12; 2Nal = N[C@@H](Cc1ccc2ccccc2c1)C(=O)O; Thp(SO2) = NC1(C(=O)O)CCS(=O)(=O)CC1; AEF = NCCOc1ccc(C[C@H](N)C(=O)O)cc1; Ac6c(4-thia) = NC1(C(=O)O)CCSCC1; 3Pal = N[C@@H](Cc1cccnc1)C(=O)O; Pen = CC(C)(S)[C@H](N)C(=O)O; Sar = CNCC(=O)O
Columns and labels:
[1] = molecular target: T1, IL23R (Homo sapiens, UniProt Q5VWK5); assay: Competing with IL23 for binding to IL23R (HTRF, IL23/IL23R binding assay kit); details: 2 hours incubation at room temperature
T1 construct: Tag2 (identity not disclosed); purchased PerkinElmer 64BDPIL23PEH
T1 sequence (Q5VWK5 24-355 limits assumed): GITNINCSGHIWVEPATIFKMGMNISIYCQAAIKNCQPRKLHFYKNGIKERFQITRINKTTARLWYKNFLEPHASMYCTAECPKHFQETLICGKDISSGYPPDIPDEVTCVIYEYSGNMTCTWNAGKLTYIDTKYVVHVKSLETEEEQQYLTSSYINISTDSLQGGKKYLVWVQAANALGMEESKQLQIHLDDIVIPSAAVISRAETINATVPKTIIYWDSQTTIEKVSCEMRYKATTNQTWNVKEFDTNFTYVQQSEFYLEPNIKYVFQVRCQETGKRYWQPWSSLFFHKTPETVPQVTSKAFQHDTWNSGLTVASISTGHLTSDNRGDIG
Protocol: (§1) The compounds of the present disclosure were screened in IL23/IL23R BINDING ASSAY KITS (PerkinElmer Cat #64BDPIL23PEH). The screening of the compounds of the present disclosure was carried out by using a multi-well plate (suitable for HTRF determination). Generally, 2 μl of several compounds of the present disclosure and STANDARD SOLUTIONS in KIT were first respectively added to the wells of the multi-well plate. 4 μl of Tag1-IL23, 4 μl of Tag2-IL23R, and 10 μL of pre-mixed Anti-Tag1 Eu Cryptate Antibody and Anti-Tag2 d2 reagent were necessarily added to all the wells. The multi-well plate was protected from light by an opaque cover membrane, and the opaque cover membrane was then removed
as §1, with “removed after 2 hours of incubation at room temperature. The signal value was read by an HTRF-compatible detection instrument to detect IC50 value.” for “removed”
(§2) The inhibition rate was calculated as follows: […]
By using log (inhibitor) vs. response—Variable slope (four parameters) in Graphpad, the data of HTRF experiment results were subjected to non-linear regression fitting to fit a curve and obtain the IC50 value.

[2] = system: activation of STAT3 phosphorylation by hIL23 in DB cells; assay: Blocking the activation of STAT3 phosphorylation by hIL23 in DB cells (p-STAT3 ELISA); type: cell-based, Human; details: DB cells stimulated by rhIL-23 0.5 nM, half an hour; read-out: pStat3 IC50
Protocol: To determine the inhibitory activity of the compounds of the present disclosure on the activation of STAT3 phosphorylation by hIL23 in DB cells
The compounds produced above were added to DB (ATCC Cat #CRL-2289) cells to inhibit the signal transduction of rhIL-23 cytokine. The screening of compounds was carried out by a multi-well plate (suitable for ELISA assay). Generally, in the presence of some of the above compounds of the present disclosure, 6.25×10^6 cells/ml of DB cells were stimulated by rhIL-23 (0.5 nM, R&D SYSTEMS) in RPMI medium (Invitrogen) containing 10% of FBS, and after half an hour, lysis was carried out on ice using 50 μL of 2×lysis buffer (CST). The content of p-STAT3 in the lysate was determined by PathScan Phospho-Stat3 (Tyr705) Sandwich ELISA Kit (CST Cat #7300C), so as to calculate the activity of the compounds of the present disclosure in blocking rhIL23 signal transduction in DB cells.
as §2
By using log (inhibitor) vs. response—Variable slope (four parameters) in Graphpad, the data of ELISA experiment results were subjected to non-linear regression fitting to fit a curve and obtain the IC50 value.

| IC50 [1] | IC50 [2] | Compound |
| --- | --- | --- |
| 1.35 nM | – | CC(=O)NCCCC[C@@H]1NC(=O)[C@H](Cc2c[nH]c3c(C)cccc23)NC(=O)[C@H]([C@@H](C)O)NC(=O)[C@H](CC(N)=O)NC(=O)[C@@H](NC(C)=O)C(C)(C)SSC(C)(C)[C@@H](C(=O)N[C@@H](Cc2ccc(OCCN)cc2)C(=O)N[C@@H](Cc2ccc3ccccc3c2)C(=O)NC2(C(=O)N[C@@H](CCC(=O)O)C(=O)N[C@@H](CC(N)=O)C(=O)N[C@@H](Cc3cccnc3)C(=O)N(C)CCNC(=O)CCCCC[N+](C)(C)C)CCC(F)(F)CC2)NC1=O [Example 1-19] |
| 1.11 nM | 0.0016 nM | CC(=O)NCCCC[C@@H]1NC(=O)[C@H](Cc2c[nH]c3c(C)cccc23)NC(=O)[C@H]([C@@H](C)O)NC(=O)[C@H](CC(N)=O)NC(=O)[C@@H](NC(C)=O)C(C)(C)SSC(C)(C)[C@@H](C(=O)N[C@@H](Cc2ccc(OCCN)cc2)C(=O)N[C@@H](Cc2ccc3ccccc3c2)C(=O)NC2(C(=O)N[C@@H](CCC(=O)O)C(=O)N[C@@H](CC(N)=O)C(=O)N[C@@H](Cc3cccnc3)C(=O)N(C)CC(N)=O)CCS(=O)(=O)CC2)NC1=O [Example 4-14] (Ac-[Pen]NT[Trp(7-Me)]K(Ac)[Pen][AEF][2Nal][Thp(SO2)]EN[3Pal][Sar]-NH2; disulfide 1-6) |
| 1.18 nM | – | CC(=O)NCCCC[C@@H]1NC(=O)[C@H](Cc2c[nH]c3c(C)cccc23)NC(=O)[C@H]([C@@H](C)O)NC(=O)[C@H](CC(N)=O)NC(=O)[C@@H](NC(C)=O)C(C)(C)SSC(C)(C)[C@@H](C(=O)N[C@@H](Cc2ccc(OCCN)cc2)C(=O)N[C@@H](Cc2ccc3ccccc3c2)C(=O)NC2(C(=O)N[C@@H](CCC(=O)O)C(=O)N[C@@H](CC(N)=O)C(=O)N[C@@H](Cc3cccnc3)C(=O)N(C)CCNC(=O)CCCCC[N+](C)(C)C)CCS(=O)(=O)CC2)NC1=O [Example 4-19] |
| 1.25 nM | – | CC(=O)NCCCC[C@@H]1NC(=O)[C@H](Cc2c[nH]c3c(C)cccc23)NC(=O)[C@H]([C@@H](C)O)NC(=O)[C@H](CC(N)=O)NC(=O)[C@@H](NC(C)=O)C(C)(C)SSC(C)(C)[C@@H](C(=O)N[C@@H](Cc2ccc(OCCN)cc2)C(=O)N[C@@H](Cc2ccc3ccccc3c2)C(=O)NC2(C(=O)N[C@@H](CCC(=O)O)C(=O)N[C@@H](CC(N)=O)C(=O)N[C@@H](Cc3cccnc3)C(=O)N(C)CCNC(=O)COCCOCCNC(=O)COCCOCCNC(=O)CC[C@H](NC(=O)CCCCCCCCCCCCCCCCC(=O)O)C(=O)O)CCOCC2)NC1=O [Example 6] |

Continued, molecule first:

| Compound | IC50 [1] | IC50 [2] |
| --- | --- | --- |
| CC(=O)NCCCC[C@@H]1NC(=O)[C@H](Cc2c[nH]c3c(C)cccc23)NC(=O)[C@H]([C@@H](C)O)NC(=O)[C@H](CC(N)=O)NC(=O)[C@@H](NC(C)=O)C(C)(C)SSC(C)(C)[C@@H](C(=O)N[C@@H](Cc2ccc(OCCN)cc2)C(=O)N[C@@H](Cc2ccc3ccccc3c2)C(=O)NC2(C(=O)N[C@@H](CCC(=O)O)C(=O)N[C@@H](CC(N)=O)C(=O)N[C@@H](Cc3ccncc3)C(=O)N(C)CC(N)=O)CCC(F)(F)CC2)NC1=O [Example 1-14] | 1.14 nM | – |
| CCCCCCC(=O)NCCCCCCCC(=O)NCC[N+](C)(C)CCOCCOCCC(=O)NCCN(C)C(=O)[C@H](Cc1cccnc1)NC(=O)[C@H](CC(N)=O)NC(=O)[C@H](CCC(=O)O)NC(=O)C1(NC(=O)[C@H](Cc2ccc3ccccc3c2)NC(=O)[C@H](Cc2ccc(OCCN)cc2)NC(=O)[C@H]2NC(=O)[C@H](CCCCNC(C)=O)NC(=O)[C@H](Cc3c[nH]c4c(C)cccc34)NC(=O)[C@H]([C@@H](C)O)NC(=O)[C@H](CC(N)=O)NC(=O)[C@@H](NC(C)=O)C(C)(C)SSC2(C)C)CCOCC1 [Example 2] | 0.23 nM | 0.01 nM |
| CC(=O)NCCCC[C@@H]1NC(=O)[C@H](Cc2c[nH]c3c(C)cccc23)NC(=O)[C@H]([C@@H](C)O)NC(=O)[C@H](CC(N)=O)NC(=O)[C@@H](NC(C)=O)C(C)(C)SSC(C)(C)[C@@H](C(=O)N[C@@H](Cc2ccc(OCCN)cc2)C(=O)N[C@@H](Cc2ccc3ccccc3c2)C(=O)NC2(C(=O)N[C@@H](CCC(=O)O)C(=O)N[C@@H](CC(N)=O)C(=O)N[C@@H](Cc3cccnc3)C(=O)N(C)CC(N)=O)CCSCC2)NC1=O [Example 3-14] (Ac-[Pen]NT[Trp(7-Me)]K(Ac)[Pen][AEF][2Nal][Ac6c(4-thia)]EN[3Pal][Sar]-NH2; disulfide 1-6) | 1.09 nM | 0.0014 nM |
| CC(=O)NCCCC[C@@H]1NC(=O)[C@H](Cc2c[nH]c3c(C)cccc23)NC(=O)[C@H]([C@@H](C)O)NC(=O)[C@H](CC(N)=O)NC(=O)[C@@H](NC(C)=O)C(C)(C)SSC(C)(C)[C@@H](C(=O)N[C@@H](Cc2ccc(OCCN)cc2)C(=O)N[C@@H](Cc2ccc3ccccc3c2)C(=O)NC2(C(=O)N[C@@H](CCC(=O)O)C(=O)N[C@@H](CC(N)=O)C(=O)N[C@@H](Cc3cccnc3)C(=O)N(C)CCNC(=O)CCCCC[N+](C)(C)C)CCSCC2)NC1=O [Example 3-19] | 1.13 nM | – |
| CC(=O)NCCCC[C@@H]1NC(=O)[C@H](Cc2c[nH]c3c(C)cccc23)NC(=O)[C@H]([C@@H](C)O)NC(=O)[C@H](CC(N)=O)NC(=O)[C@@H](NC(C)=O)C(C)(C)SSC(C)(C)[C@@H](C(=O)N[C@@H](Cc2ccc(OCCN)cc2)C(=O)N[C@@H](Cc2ccc3ccccc3c2)C(=O)NC2(C(=O)N[C@@H](CCC(=O)O)C(=O)N[C@@H](CC(N)=O)C(=O)N[C@@H](Cc3cccnc3)C(=O)N(C)CCNC(=O)CCOCCOCC[N+](C)(C)C)CCOCC2)NC1=O [Example 3] | 1.23 nM | – |
| CC(=O)NCCCC[C@@H]1NC(=O)[C@H](Cc2c[nH]c3c(C)cccc23)NC(=O)[C@H]([C@@H](C)O)NC(=O)[C@H](CC(N)=O)NC(=O)[C@@H](NC(C)=O)C(C)(C)SSC(C)(C)[C@@H](C(=O)N[C@@H](Cc2ccc(OCCN)cc2)C(=O)N[C@@H](Cc2ccc3ccccc3c2)C(=O)NC2(C(=O)N[C@@H](CCC(=O)O)C(=O)N[C@@H](CC(N)=O)C(=O)N[C@@H](Cc3cccnc3)C(=O)N(C)CCNC(=O)CCCCC[N+](C)(C)C)CCOCC2)NC1=O [Example 12] | 1.14 nM | – |
